Read-outs that look alike come from different tables or passages of the source.
Key:
levodopa-primed monkeys = test system: levodopa-primed monkeys
Protocol: Levodopa administration: Monkeys were administered levodopa/carbidopa (5 mg/kg and 1.25 mg/kg, respectively), prepared by crushing a tablet of Sinemet® CR 100/25 (DuPont Pharma) and dissolving it in water. This dose of levodopa is within the range of that prescribed to Parkinson's disease patients. The monkeys were gavaged twice daily at 3.5-hour intervals for 8 weeks at a time using a 5-day-on/2-day-off schedule (Hsu et al., J Pharmacol Exp Ther. 2004; 311:770-777). During levodopa treatment, the monkeys were given fruits in the morning and food pellets 3.5 hours after the afternoon levodopa dose to optimize gastrointestinal absorption.
Dyskinesias were rated from videotapes, as described (Hsu et al., J Pharmacol Exp Ther. 2004; 311:770-777). This included a one hour baseline period (no drugs) from ˜8:00-9:00 AM, followed by two 3.5-hour treatment periods with levodopa starting at ˜9:00 AM and ˜12:30 PM. Dyskinesias were rated for 2-minute periods at 30-minute intervals by two independent raters blinded to treatment. They were rated on a scale of 0 (no dyskinesias) to 4; a score of 1 was indicative of subtle dyskinesias that were not sustained; 2, mild dyskinesias that were sustained; 3, moderate dyskinesias that impaired the ability to remain stationary; 4, severe dyskinesias that were generalized and incapacitating.
Data analyses: The levodopa treatment protocol used in the present study involved a 5-day-on/2-day-off schedule. Parkinsonian ratings were done on Monday and Friday of each week, with the score averaged over the two days. Dyskinesias ratings were determined by averaging the scores on Wednesday and Thursday of each week. All values are expressed as the mean±SE of the indicated number of animals. Results were compared using paired t-tests or analysis of variance (ANOVA) followed by Bonferroni multiple comparison post hoc test, using Prism® program (GraphPad Software, Inc, San Diego, Calif.). A level of 0.05 was considered significant.
Materials and methods were the same as in example 1.
A crossover study, was then conducted, in which the animals originally receiving nicotine were given vehicle (n=3), while the vehicle-treated animals were now administered nicotine (n=4). Levodopa treatment was stopped. […] Monkeys that had previously received nicotine were placed on vehicle drinking water for the same time period. All monkeys were then treated with levodopa (5 mg/kg, twice daily 3.5 hours apart) for a subsequent 8-week period. Since both groups of monkeys had previously received levodopa, they were termed levodopa-primed.

[1] = test system: 6-hydroxydopamine-lesioned rats; conditions: for L-dopa-induced AIMs, time course: L-dopa 8 then 12 mg/kg ip, ANOVA P<0.001; for L-dopa-induced AIMs, crossover to nicotine: rats initially without nicotine then given nicotine
Protocol: Animals. Experiments were performed using male Sprague-Dawley rats (initial weight 250 g) purchased from Charles River Laboratories (Gilroy, Calif.). They were housed 2 per cage under a 12-12 h light-dark cycle in a temperature-controlled room with free access to food and water. Three to four days after arrival, the rats were unilaterally lesioned with 6-hydroxydopamine as previously described (Cenci et al., 1998 Eur J Neurosci 10:2694-2706.; Cenci et al., 2002 Nat Rev Neurosci 3:574-579). During the lesioning procedure the rats were maintained under isofluorane anesthesia (2%). They were placed in a Kopf stereotaxic instrument and burr holes drilled through the skull at the following coordinates relative to the Bregma and dural surface: (1) anteroposterior, −4.4; lateral, 1.2; ventral, 7.8; tooth bar at −2.4; (2) anteroposterior, −4.0; lateral, 0.75; ventral, 8.0; tooth bar at +3.4 (Cenci et al., 1998 Eur J Neurosci 10:2694-2706.; Cenci et al., 2002 Nat Rev Neurosci 3:574-579). 6-Hydroxydopamine was dissolved in 0.02% ascorbic acid/saline at a concentration of 3 ug/ul. Two μl was stereotaxically injected at each of these sites for a total of […] into the right ascending dopamine fiber bundle. Infusion of 6-hydroxydopamine into the target area was over a 2-min period, with the cannula maintained at the site of injection for a further 2 min. All procedures conformed to the NIH Guide for the Care and Use of Laboratory Animals and were approved by the Institutional Animal Care and Use Committee.
Behavioral testing. Two and three weeks after lesioning, rats were tested for rotational behavior in an automated behavioral measurement apparatus (ROTOMAX, AccuScan Instruments Inc. Columbus, Ohio, USA). Each rat was placed in a cylindrical glass chamber for 30 min for acclimatization, after which amphetamine (4.0 mg/kg ip) was administered. The behavior was monitored for an additional 90 min, with rats making at least 100 ipsilateral turns used for further study.
Nicotine treatment. When the behavioral testing was completed, rats were treated with nicotine via the drinking water that yields an intermittent dosing regimen or via minipump that provides a constant level of nicotine. For administration via the drinking water, rats were first provided with a solution containing 1% saccharin (Sigma Chemical Co., St. Louis, Mo.) to mask the bitter taste of nicotine. After 2-3 days of acclimation, nicotine (free base, Sigma Chemical Co., St. Louis, Mo.) was added to the saccharin-containing drinking solution of the treated group (pH 7.0). Nicotine was initially given at a concentration of 25 μg/ml nicotine for 2 days.
In a separate series of experiments, rats were given nicotine continuously via Alzet minipumps (model 2004-200 μl), which secrete nicotine for 28 days. These were subcutaneously implanted according to the manufacturer's instruction. Pumps were filled with either sterilized water or nicotine base in water to deliver 2 mg/kg/d.
L-dopa treatment. Three weeks after initiation of the 50 ug/ml nicotine dose, the rats received single daily intraperitoneal injections of 8 mg/kg L-dopa methyl ester plus 15 mg/kg benserazide (both from Sigma Chemical Co., St. Louis, Mo.) (Cenci et al., 1998 Eur J Neurosci 10:2694-2706.; Cenci et al., 2002 Nat Rev Neurosci 3:574-579). After 3 weeks of daily L-dopa dosing, abnormal involuntary movements (AIMs) were quantified. These included (1) axial dystonia, contralateral twisted posturing of the neck and upper body; (2) orolingual dyskinesia, stereotyped jaw movements and contralateral tongue protrusion; and (3) forelimb dyskinesia, repetitive rhythmic jerks or dystonic posturing of the contralateral forelimb and/or grabbing movements of the contralateral paw (Cenci et al., 1998 Eur J Neurosci 10:2694-2706.; Cenci et al., 2002 Nat Rev Neurosci 3:574-579; Carta et al., 2006 Neurochem 96:1718-1727).

[2] = test system: 6-hydroxydopamine-lesioned rats; conditions: ROTOMAX, AccuScan System; n=9; saccharin group 8.2+3.7, no difference
Protocol: Behavioral assessment of the lesion. As an index of nigrostriatal damage, the rats were tested for rotational behavior 3 and 4 weeks after lesioning. This was done using an automated behavioral measurement apparatus that has four cylindrical chambers (50 cm height×34 cm diameter) (ROTOMAX, AccuScan Instruments Inc. Columbus, Ohio, USA). A rat was placed in one of the chambers for 30 min for acclimatization, after which time amphetamine (4 mg/kg ip) was administered as previously described (Visanji et al., 2006, Neuropharmacology 51:506-516). […] The rats were tested a second time one week later and the data from the two testing periods pooled.

[3] = test system: corticostriatal slices from nonhuman primates; conditions: nicotine treatment
Description: Brain slices at the level of the globus pallidus have generally been used as they incorporate many of the structures present in basal ganglia motor circuits. This includes glutamatergic inputs from the cortex that densely innervate striatal medium spiny GABAergic neurons and are a determinant of neuronal activity in striatal projection neurons. Synaptic plasticity, defined as long-lasting changes in the efficacy of synaptic transmission, has been identified in corticostriatal slices in vitro in the form of long-term potentiation (LTP), long-term depression (LTD) and depotentiation. In slices from unlesioned rats, high-frequency stimulation (HFS) of glutamatergic corticostriatal afferent fibers can induce both LTD and LTP in striatal medium spiny neurons, most likely due to a release of striatal glutamate which triggers dopamine release. Stimulation of both D1 and D2 receptors is required for the induction of LTD, whereas these two receptor subtypes play opposing roles in LTP.

## CN1CCCC1c1cccnc1 (stereo not drawn) [Nicotine, S-3-(1-methyl-2-pyrrolidinyl)pyridine]
levodopa-primed monkeys; animals removed from nicotine treatment, week 4, 6 and 8 of levodopa treatment
  total dyskinetic scores after removal of nicotine: significantly enhanced
levodopa-primed monkeys; levodopa-primed monkeys
  reduction of dyskinesias: ~35%
levodopa-primed monkeys; levodopa-primed monkeys switched to nicotine
  duration of dyskinesias: decrease
levodopa-primed monkeys; levodopa-primed monkeys switched to nicotine, last 4 weeks of levodopa treatment
  peak dyskinesias: significantly reduced
levodopa-primed monkeys; levodopa-primed monkeys switched to nicotine, vs same animal before crossover, all time points, paired t-tests
  total dyskinesias: significantly reduced
[1]; constant nicotine 2 mg/kg/d via minipump vs no nicotine, FIG. 15
  individual AIM components (total, axial, oral, forelimb): reduced
[1]; continuous nicotine 2 mg/kg/d via minipump, FIG. 14
  L-dopa-induced AIMs, time course: significant effect
[1]; drinking water, rats initially on nicotine then given saccharin, FIG. 13
  AIMs development after removal of nicotine: increase
[1]; drinking water, FIG. 13
  L-dopa-induced AIMs, crossover to nicotine: reduced
[1]; intermittent nicotine 50 μg/ml in drinking water, FIG. 11
  L-dopa-induced AIMs, time course: significant effect
[1]; intermittent nicotine in drinking solution vs saccharin only, FIG. 12
  individual AIM components (total, axial, oral, forelimb): reduced
[1]; minipump, rats initially on nicotine then given minipumps containing no nicotine, FIG. 16
  AIMs development after removal of nicotine: increase
[1]; minipump, FIG. 16
  L-dopa-induced AIMs, crossover to nicotine: reduced
[2]
  extent of turning: 8.4+6.7
Minipump 2 mg/kg/d nicotine vs vehicle
  body weight: similar
Nicotine in saccharin drinking solution vs vehicle-treated
  fluid intake: drank less
Nicotine via drinking water, continued dosing, rats appeared healthy
  body weight: small difference
[3]
  long-term depression (LTD) lost as a result of nigrostriatal damage: restores

Reference: patent US7718677B2, “Methods and compositions for reduction of side effects of therapeutic treatments” (priority 2007, dated 2010)
